Measured values from the supplement of paper PMC10307832.

Tests used:
Assay in all cases: relative viability (nuclei count vs DMSO), 5 days (fraction); higher = more cells survive
Bemcentinib + Olaparib = compound: Nc1nc(Nc2ccc3c(c2)CC[C@@H](N2CCCC2)CC3)nn1-c1cc2c(nn1)-c1ccccc1CCC2 [Bemcentinib] + O=C(c1cc(Cc2n[nH]c(=O)c3ccccc23)ccc1F)N1CCN(C(=O)C2CC2)CC1 [Olaparib] (partner 8 µM)
Summary of the method: (§1)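 Lung cancer cell lines, seeded in 1536-well plates, were treated the following day by pin tool with a single drug or with five library-drug doses (not always all listed) in √10 steps on top of a fixed anchor-drug dose. Cells were fixed and nuclei stained in one step after 5 days, and nuclei were counted. Relative viability is the nuclei count for treated wells divided by that for vehicle wells, reported as medians of duplicate plates.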

Bemcentinib + Phenformin = compound: Nc1nc(Nc2ccc3c(c2)CC[C@@H](N2CCCC2)CC3)nn1-c1cc2c(nn1)-c1ccccc1CCC2 [Bemcentinib] + N=C(N)NC(=N)NCCc1ccccc1 [Phenformin] (partner 250 µM)
Summary of the method: as §1

[1] = compound: CC1=CC=C(C=C1)C(=O)CN2C3=C(CCCC3)SC2=N [Pifithrin_alpha] + CC(=O)Nc1cccc(-n2c(=O)n(C3CC3)c(=O)c3c(Nc4ccc(I)cc4F)n(C)c(=O)c(C)c32)c1 [Trametinib] (partner 0.02 µM)
Summary of the method: as §1

Bemcentinib + Navitoclax = compound: Nc1nc(Nc2ccc3c(c2)CC[C@@H](N2CCCC2)CC3)nn1-c1cc2c(nn1)-c1ccccc1CCC2 [Bemcentinib] + CC1(C)CCC(c2ccc(Cl)cc2)=C(CN2CCN(c3ccc(C(=O)NS(=O)(=O)c4ccc(N[C@H](CCN5CCOCC5)CSc5ccccc5)c(S(=O)(=O)C(F)(F)F)c4)cc3)CC2)C1 [Navitoclax] (partner 0.5 µM)
Summary of the method: as §1

Cell Line | relative viability (Bemcentinib + Olaparib; first compound 0.04 µM) | relative viability (Bemcentinib + Olaparib; first compound 0.1265 µM) | relative viability (Bemcentinib + Olaparib; first compound 0.4 µM) | relative viability (Bemcentinib + Olaparib; first compound 1.265 µM) | relative viability (Bemcentinib + Olaparib; first compound 4 µM) | relative viability (Bemcentinib + Phenformin; first compound 0.04 µM) | relative viability (Bemcentinib + Phenformin; first compound 0.1265 µM) | relative viability (Bemcentinib + Phenformin; first compound 0.4 µM) | relative viability (Bemcentinib + Phenformin; first compound 1.265 µM) | relative viability (Bemcentinib + Phenformin; first compound 4 µM) | relative viability ([1]; first compound 1 µM) | relative viability ([1]; first compound 3.162 µM) | relative viability ([1]; first compound 10 µM) | relative viability ([1]; first compound 31.62 µM) | relative viability ([1]; first compound 100 µM) | relative viability (Bemcentinib + Navitoclax; first compound 0.04 µM) | relative viability (Bemcentinib + Navitoclax; first compound 0.1265 µM) | relative viability (Bemcentinib + Navitoclax; first compound 0.4 µM) | relative viability (Bemcentinib + Navitoclax; first compound 1.265 µM) | relative viability (Bemcentinib + Navitoclax; first compound 4 µM)
NCI-H1666 | 0.742 | 0.887 | 0.731 | 0.713 | 0.713 | 0.572 | 0.675 | 0.564 | 0.564 | 0.635 | 0.8 | 0.737 | 0.791 | 0.706 | 0.494 | 0.864 | 0.942 | 1.01 | 0.866 | 1.03
NCI-H1734 | 0.634 | 0.754 | 0.649 | 0.603 | 0.642 | 0.406 | 0.384 | 0.42 | 0.434 | 0.372 | 0.716 | 0.769 | 0.648 | 0.623 | 0.666 | 0.872 | 0.986 | 0.94 | 0.886 | 0.875
NCI-H1755 | 0.92 | 0.868 | 0.929 | 0.951 | 0.935 | 0.652 | 0.62 | 0.648 | 0.59 | 0.622 | 0.724 | 0.682 | 0.706 | 0.694 | 0.738 | 1.05 | 1.04 | 1.03 | 1.11 | 1.08
NCI-H1792 | 0.496 | 0.353 | 0.538 | 0.391 | 0.498 | 0.293 | 0.293 | 0.326 | 0.193 | 0.248 | 0.498 | 0.389 | 0.432 | – | 0.316 | 0.668 | 0.57 | 0.859 | 0.697 | 0.665
NCI-H1793 | 0.852 | 1.16 | 0.987 | 0.961 | 0.842 | 0.395 | 0.463 | 0.384 | – | 0.336 | 0.419 | 0.371 | 0.365 | 0.496 | 0.437 | 0.438 | 0.44 | 0.425 | 0.545 | 0.427
NCI-H1915 | 0.282 | 0.242 | 0.243 | 0.232 | 0.26 | 0.376 | 0.375 | 0.372 | 0.383 | 0.353 | 0.291 | 0.296 | 0.302 | – | 0.308 | 0.805 | 0.81 | 0.817 | 0.788 | 0.788
NCI-H1944 | 0.413 | 0.414 | 0.418 | 0.436 | 0.424 | 0.202 | 0.211 | 0.219 | 0.217 | 0.206 | 0.395 | 0.358 | 0.368 | 0.319 | 0.374 | 0.964 | 1.02 | 1.04 | 0.977 | 1.08
NCI-H1975 | 0.803 | 0.954 | 0.951 | 0.849 | 0.749 | 0.405 | 0.428 | 0.428 | 0.437 | 0.417 | 0.251 | 0.29 | 0.232 | 0.275 | 0.252 | 1.03 | 1.23 | 1.12 | 1.05 | 1.2
